Laboratory results: US6569842B2 (Board of Trustees of the University of Illinois, The, priority 2000, dated 2003)
Values after ≈ are worked out from the molar mass of the structure shown.

How the values were obtained:
MEL-2 (melanoma) = assay: Cytotoxicity against cultured MEL-2 cells (SRB); type: cell-based, human; conditions: Method A, sample dissolved in DMSO, three days incubation; for IC50: Homo sapiens, MEL2, 72 h, read-out: ED50 MEL-2
Procedure: (§1) Cytotoxicity of the crude extracts and purified compounds was determined in a number of cultured human cancer cell lines. Table 1 sets forth the various types of cancer cells evaluated using Method A. The cells were cultured in appropriate media and under standard conditions. To maintain logarithmic growth, the media were changed 24 hours prior to cytotoxic assays. On the day of the assay, the cells were harvested by trypsinization, counted, diluted in media, and added to 96-well plates containing test compounds dissolved in DMSO. The final DMSO concentration was 0.05%.
(§2) In each of Methods A-C, the plates were incubated for three days. Following the incubation period, the cells were fixed and stained with sulforhodamine B (SRB) dye. The bound dye was liberated with Tris base, and the OD515 (optical density at 515 nm) was measured on an ELISA reader. The growth of the betulinic acid-treated cells was determined by the OD515 values, and the growth was compared to the OD515 values of treated control cells of Methods A-C. Dose response studies were performed to generate ED50 values. As used herein, the term OD515 is defined as optical density at 515 nm, and the term ED50 is defined as the concentration of a compound required to reduce cell number by 50%.

[1] = system: KB (human oral epidermoid carcinoma); assay: Cytotoxicity against cultured KB cells (SRB); type: cell-based; conditions: Method A, sample dissolved in DMSO; three days incubation
Procedure: as §1, §2

COL-2 (colon) = assay: Cytotoxicity against cultured COL-2 cells (SRB); type: cell-based, human; conditions: Method A, sample dissolved in DMSO, three days incubation; for IC50: Homo sapiens, Col2, 72 h, read-out: ED50 COL-2
Procedure: as §1, §2

ZR-75-1 (breast) = assay: Cytotoxicity against cultured ZR-75-1 cells (SRB); type: cell-based, human; conditions: Method A, sample dissolved in DMSO, three days incubation; for IC50: Homo sapiens, ZR-75-1, 72 h, read-out: ED50 ZR 75-1
Procedure: as §1, §2

LNCaP (prostate) = assay: Cytotoxicity against cultured LNCaP cells (SRB); type: cell-based, human; conditions: Method A, sample dissolved in DMSO; three days incubation
Procedure: as §1, §2

U373 (glioma) = assay: Cytotoxicity against cultured U373 cells (SRB); type: cell-based, human; conditions: Method A, sample dissolved in DMSO; three days incubation
Procedure: as §1, §2

BC-1 (breast) = assay: Cytotoxicity against cultured BC-1 cells (SRB); type: cell-based, human; conditions: Method A, sample dissolved in DMSO, three days incubation; for IC50: Homo sapiens, BC1, 72 h, read-out: ED50 BC-1
Procedure: as §1
as §2, with “The growth of the betulinic acid-treated cells was determined by the OD515 values, and the growth was compared to the OD515 values of treated control cells of Methods A-C.” left out

LU-1 (lung) = assay: Cytotoxicity against cultured LU-1 cells (SRB); type: cell-based, human; conditions: Method A, sample dissolved in DMSO, three days incubation; for IC50: Homo sapiens, Lu1, 72 h, read-out: ED50 LU-1
Procedure: as §1, §2

A431 (squamous cells) = assay: Cytotoxicity against cultured A431 cells (SRB); type: cell-based, human; conditions: Method A, sample dissolved in DMSO; three days incubation
Procedure: as §1, §2

HT-1080 (sarcoma) = assay: Cytotoxicity against cultured HT-1080 cells (SRB); type: cell-based, human; conditions: Method A, sample dissolved in DMSO, three days incubation; for IC50: Homo sapiens, HT-1080, 72 h, read-out: ED50 HT-1080
Procedure: as §1, §2

a variety of tumors = conditions: Phase II trials in Japan; cited from earlier work

CC(=O)O[C@H]1C(=O)[C@@]2(C)[C@H]([C@H](OC(=O)c3ccccc3)[C@]3(O)C[C@H](OC(=O)[C@H](O)[C@@H](NC(=O)c4ccccc4)c4ccccc4)C(C)=C1C3(C)C)[C@]1(OC(C)=O)CO[C@@H]1C[C@@H]2O [Taxol, paclitaxel]
IC50 (MEL-2 (melanoma)): 0.06 µg/mL (≈ 0.0703 µM) | ED50 KB [1]: 0.02 µg/mL (≈ 0.0234 µM) | IC50 (COL-2 (colon)): 0.02 µg/mL (≈ 0.0234 µM) | IC50 (ZR-75-1 (breast)): 0.02 µg/mL (≈ 0.0234 µM) | ED50 LNCaP (LNCaP (prostate)): 0.02 µg/mL (≈ 0.0234 µM) | ED50 U373 (U373 (glioma)): 0.008 µg/mL (≈ 0.00937 µM) | IC50 (BC-1 (breast)): 0.02 µg/mL (≈ 0.0234 µM)

CC[C@]1(O)C[C@@H]2CN(CCc3c([nH]c4ccccc34)[C@@](C(=O)OC)(c3cc4c(cc3OC)N(C)[C@H]3[C@@](O)(C(=O)OC)[C@H](OC(C)=O)[C@]5(CC)C=CCN6CC[C@]43[C@@H]65)C2)C1 [Vinblastine]
IC50 (MEL-2 (melanoma)): 0.01 µg/mL (≈ 0.0123 µM) | ED50 KB [1]: 0.04 µg/mL (≈ 0.0493 µM) | IC50 (LU-1 (lung)): 0.02 µg/mL (≈ 0.0247 µM) | IC50 (COL-2 (colon)): 0.01 µg/mL (≈ 0.0123 µM) | IC50 (ZR-75-1 (breast)): 0.3 µg/mL (≈ 0.37 µM) | ED50 A431 (A431 (squamous cells)): 0.05 µg/mL (≈ 0.0617 µM) | ED50 LNCaP (LNCaP (prostate)): 0.1 µg/mL (≈ 0.123 µM) | ED50 U373 (U373 (glioma)): 1.1 µg/mL (≈ 1.36 µM) | IC50 (BC-1 (breast)): 0.06 µg/mL (≈ 0.074 µM) | IC50 (HT-1080 (sarcoma)): 0.02 µg/mL (≈ 0.0247 µM)

CC[C@]1(O)C[C@H]2CN(CCc3c([nH]c4ccccc34)[C@@](C(=O)OC)(c3cc4c(cc3OC)N(C=O)[C@H]3[C@@](O)(C(=O)OC)[C@H](OC(C)=O)[C@]5(CC)C=CCN6CC[C@]43[C@@H]65)C2)C1 [Vincristine]
IC50 (MEL-2 (melanoma)): 0.02 µg/mL (≈ 0.0242 µM) | IC50 (LU-1 (lung)): 0.05 µg/mL (≈ 0.0606 µM) | IC50 (COL-2 (colon)): 0.02 µg/mL (≈ 0.0242 µM) | IC50 (ZR-75-1 (breast)): 0.4 µg/mL (≈ 0.485 µM) | ED50 A431 (A431 (squamous cells)): 0.01 µg/mL (≈ 0.0121 µM) | ED50 LNCaP (LNCaP (prostate)): 0.1 µg/mL (≈ 0.121 µM) | ED50 U373 (U373 (glioma)): 0.06 µg/mL (≈ 0.0727 µM) | IC50 (BC-1 (breast)): 0.01 µg/mL (≈ 0.0121 µM) | IC50 (HT-1080 (sarcoma)): 0.02 µg/mL (≈ 0.0242 µM)

CCc1c2c(nc3ccc(OC(=O)N4CCC(N5CCCCC5)CC4)cc13)-c1cc3c(c(=O)n1C2)COC(=O)[C@]3(O)CC [irinotican]
response rate, lymphoma (a variety of tumors): 0% | response rate, small cell lung (a variety of tumors): 50%

Mithramycin A
ED50 MEL-2 (MEL-2 (melanoma)): 1.2 µg/mL | ED50 KB [1]: 0.09 µg/mL | ED50 LU-1 (LU-1 (lung)): 0.2 µg/mL | ED50 COL-2 (COL-2 (colon)): 0.06 µg/mL | ED50 ZR 75-1 (ZR-75-1 (breast)): 0.2 µg/mL | ED50 A431 (A431 (squamous cells)): 0.09 µg/mL | ED50 LNCaP (LNCaP (prostate)): 0.05 µg/mL | ED50 U373 (U373 (glioma)): 0.04 µg/mL | ED50 BC-1 (BC-1 (breast)): 0.3 µg/mL | ED50 HT-1080 (HT-1080 (sarcoma)): 1.5 µg/mL
